Tests used:
[1] = Transparency evaluation of resin compatible film with polyvinyl acetate (visual inspection); format: physicochemical; set-up: key: Good: Transparency is good.; Poor: Coloration is present; details: for Transparency: 3 μm film, 10 mg compound + 10 mg polyvinyl acetate, visual inspection; for evaluation of transparency: resin compatible film with PVAc
Source text: Several drops of each of these resin compositions were dropped onto a 2 cm square glass substrate, a film was formed by a spin coater, and acetone as a solvent was evaporated off, to form a resin compatible film (3 μm thick) of each compound. These films were confirmed to be transparent by visual inspection and were subjected to evaluation of transparency.
The criterion of transparency evaluation is as follows.
Good . . . Transparency is good.
Poor . . . Coloration is present.

[2] = Refractive index measurement (Abbe's refractometer, acetone solutions, analytical curve extrapolated); format: physicochemical; details: light of 589 nm, 25±1° C., extrapolated to volume fraction 1
Experimental: A refractive index measuring method will be described below.
Average refractive indices of the respective compounds to light of 589 nm at room temperature 25±1° C. were measured by an Abbe's refractometer (ER-1, produced by Erma, Inc.) and were plotted against volume fraction of each compound, to form analytical curves (the densities of the compounds were all 1.00 g/cm^3). The analytical curves were extrapolated, and the refractive index when the volume fraction of each compound is 1 was made to be a refractive index of each compound.

[3] = Solubility measurement in acetone; details: ultrasonic stirring, visual
Experimental: When there was an undissolved portion of the compound, a small amount of acetone was added thereto, and then stirring was further conducted for 30 seconds. The above-mentioned work was repeated, and upon dissolution of the whole of the compound, the solubility was calculated from the total amount of the solvent used.

[4] = Limit value (saturation amount) of dissolution of monomer in solvent of hologram recording photosensitive composition; format: physicochemical; details: hologram recording photosensitive composition with 8 g of acetone as solvent
Experimental: (§1) In Comparative Example 5, Hologram Recording Photosensitive Composition 50 was prepared by the same method as in Example 7 by using the same materials in the same amounts as in Example 7, except that 0.88 g of Compound 40-1 (the compound of Comparative Example 1) was used as a monofunctional photopolymerizable monomer. […] Note that the amount (0.88 g) in which Compound 40-1 was used is a limit value (saturation amount) of dissolution of the compound in a solvent.
as §1, with “6,” for “5,”, “60” for “50”, “1” for “0.88”, “40-2” for “40-1”, “2)” for “1)”, “(1” for “(0.88”
as §1, with “7,” for “5,”, “70” for “50”, “0.1” for “0.88”, “40-3” for “40-1”, “3)” for “1)”, “(0.1” for “(0.88”

[5] = background statement; cited from earlier work

Row | Structure (SMILES) | Transparency [1] | Refractive index (589 nm) [2] | Solubility/wt % [3] [wt %] | limit value (saturation amount) of dissolution of the compound in a solvent [4] [g] | evaluation of transparency [1] | refractive index [5]
1 | C=C(C)C(=O)OCc1cc2ccccc2c2c1sc1ccc3ccccc3c12 [Comparative Example 1, reference compound] | Good | 1.73 | <10 | 0.88 |  | 
2 | C=C(C)C(=O)OC(C)c1cc2ccccc2c2c1sc1ccc3ccccc3c12 (centres unmarked) [Comparative Example 2, reference compound] | Poor | 1.71 | <11 | 1 | Poor | 
3 | C=Cc1cc2ccccc2c2c1sc1ccc3ccccc3c12 [Comparative Example 3, reference compound] | Poor | 1.8 | <1.5 | 0.1 | Poor | 
4 | c1ccc2c(c1)ccc1sc3ccc4ccccc4c3c12 [Comparative Example 4, reference compound] | Good | 1.81 |  |  |  | 
5 | C=C(C)C(=O)Oc1ccccc1CCc1cc2ccccc2c2c1sc1ccc3ccccc3c12 [Example 1] | Good | 1.8 | >20 |  |  | 
6 | C=C(C)C(=O)Oc1cccc(CCc2cc3ccccc3c3c2sc2ccc4ccccc4c23)c1 [Example 2] | Good | 1.8 | >20 |  |  | 
7 | C=C(C)C(=O)Oc1ccc(CCc2cc3ccccc3c3c2sc2ccc4ccccc4c23)cc1 [Example 3] | Good | 1.8 | >20 |  |  | 
8 | C=C(CCCCCCCCCC)C(=O)Oc1ccccc1CCc1cc2ccccc2c2c1sc1ccc3ccccc3c12 [Example 4] | Good | 1.7 | >20 |  |  | 
9 | C=C(C)C(=O)Oc1ccccc1CCc1cc2ccccc2c2c1sc1ccc3ccccc3c12 [Example 5] | Good | 1.7 | >20 |  |  | 
10 | C=C(C)C(=O)Oc1ccc2ccccc2c1CCc1cc2ccccc2c2c1sc1ccc3ccccc3c12 [Example 6] | Good | 1.81 | >20 |  |  | 
11 | C=C(C)C(=O)Oc1cccc(OC(=O)C(=C)C)c1CCc1cc2ccccc2c2c1sc1ccc3ccccc3c12 [Example 13] | Good | 1.73 | >20 |  |  | 
12 | C=CC(=O)Oc1cccc(OC(=O)C=C)c1CCc1cc2ccccc2c2c1sc1ccc3ccccc3c12 [Example 14] | Good | 1.72 | >20 |  |  | 
13 | C=C(C)C(=O)Oc1cc2ccccc2cc1CCc1cc2ccccc2c2c1sc1ccc3ccccc3c12 [Example 15] | Good | 1.81 | >20 |  |  | 
14 | c1ccc2c(c1)ccc1c2sc2ccc3ccccc3c21 [dinaphthothiophene] |  |  |  |  |  | 1.8

Reference: patent US20210040061A1, “COMPOUND, POLYMER, AND ORGANIC MATERIAL” (Sony Corporation, priority 2018, published 2021)
